Test results as given in the NIST ThermoML archive (doi:10.1007/s10765-010-0768-y).

Test: xn = mol fraction of the nth substance listed
Conditions: 101 kPa, Liquid, Pycnometric method

C=CC(=O)OCCCC [butyl 2-propenoate] + Cc1cc(C)cc(C)c1
mass density [kg/m3]
Conditions	288.15 K	293.15 K	298.15 K	303.15 K	308.15 K	313.15 K	318.15 K
x1 = 0.0724	871.63	867.64	863.65	859.66	855.67	851.68	847.69
x1 = 0.1414	873.88	869.82	865.76	861.7	857.64	853.58	849.52
x1 = 0.2135	876.24	872.11	867.99	863.87	859.75	855.63	851.51
x1 = 0.2846	878.6	874.42	870.24	866.06	861.88	857.71	853.54
x1 = 0.3512	880.84	876.6	872.37	868.14	863.91	859.68	855.45
x1 = 0.4223	883.26	878.97	874.68	870.39	866.1	861.81	857.53
x1 = 0.4998	885.94	881.58	877.22	872.87	868.52	864.17	859.82
x1 = 0.5724	888.47	884.05	879.63	875.21	870.8	866.39	861.98
x1 = 0.6578	891.46	886.97	882.48	877.99	873.5	869.02	864.54
x1 = 0.7131	893.41	888.87	884.33	879.8	875.27	870.74	866.21
x1 = 0.7823	895.86	891.26	886.66	882.07	877.48	872.89	868.3
x1 = 0.8563	898.49	893.83	889.17	884.52	879.87	875.22	870.57
x1 = 0.9295	901.09	896.38	891.67	886.96	882.26	877.56	872.86
x1 = 1	903.6	898.85	894.1	889.35	884.6	879.85	875.1

C=CC(=O)OCCCC [butyl 2-propenoate] + Cc1ccc(C)cc1
mass density [kg/m3]
Conditions	288.15 K	293.15 K	298.15 K	303.15 K	308.15 K	313.15 K	318.15 K
x1 = 0.0712	868.91	864.5	860.09	855.68	851.28	846.88	842.48
x1 = 0.1429	872.25	867.79	863.33	858.87	854.42	849.97	845.52
x1 = 0.213	875.39	870.89	866.39	861.89	857.39	852.9	848.41
x1 = 0.2833	878.45	873.91	869.37	864.84	860.31	855.78	851.25
x1 = 0.3623	881.76	877.19	872.62	868.05	863.48	858.91	854.34
x1 = 0.4313	884.56	879.95	875.34	870.74	866.14	861.54	856.94
x1 = 0.5088	887.58	882.94	878.3	873.66	869.03	864.4	859.77
x1 = 0.5829	890.35	885.68	881.01	876.34	871.68	867.02	862.36
x1 = 0.6542	892.91	888.21	883.51	878.82	874.13	869.44	864.75
x1 = 0.7216	895.22	890.5	885.78	881.06	876.35	871.64	866.93
x1 = 0.7922	897.54	892.8	888.06	883.32	878.58	873.85	869.12
x1 = 0.8586	899.61	894.85	890.09	885.33	880.58	875.83	871.08
x1 = 0.9294	901.67	896.91	892.15	887.39	882.63	877.88	873.13
x1 = 1	903.6	898.85	894.1	889.35	884.6	879.85	875.1

C=CC(=O)OCCCC [butyl 2-propenoate] + Cc1cccc(C)c1
mass density [kg/m3]
Conditions	288.15 K	293.15 K	298.15 K	303.15 K	308.15 K	313.15 K	318.15 K
x1 = 0.0732	871.73	867.39	863.05	858.71	854.37	850.04	845.71
x1 = 0.1432	874.65	870.26	865.87	861.48	857.1	852.72	848.34
x1 = 0.2103	877.37	872.94	868.51	864.08	859.66	855.24	850.82
x1 = 0.2841	880.28	875.81	871.34	866.87	862.41	857.95	853.49
x1 = 0.3605	883.19	878.68	874.17	869.66	865.16	860.66	856.16
x1 = 0.4318	885.82	881.28	876.74	872.2	867.66	863.12	858.58
x1 = 0.5006	888.28	883.7	879.12	874.55	869.98	865.41	860.84
x1 = 0.5778	890.95	886.34	881.73	877.12	872.51	867.9	863.3
x1 = 0.6534	893.46	888.81	884.17	879.53	874.89	870.25	865.61
x1 = 0.7204	895.6	890.93	886.26	881.59	876.92	872.25	867.58
x1 = 0.7935	897.84	893.13	888.43	883.73	879.03	874.33	869.63
x1 = 0.8579	899.73	895	890.27	885.54	880.82	876.1	871.38
x1 = 0.9306	901.78	897.03	892.28	887.53	882.79	878.05	873.31
x1 = 1	903.6	898.85	894.1	889.35	884.6	879.85	875.1
